From patent publication US10723702B2, “Photocrosslinking reagents and methods of use thereof” (Northwestern University, priority 2015, dated 2020)
pKd: −log10 of the molar value. Entries after “also recorded” stand apart in the source; their conditions may differ.

Experiments:
[1] = test system: UbcH7 mutants with a single cysteine available; assay: Alkylation conversion of UbcH7 mono-cysteine mutants by crosslinker, estimated by LCMS; format: biochemical, human; details: all mono-cysteine UbcH7 mutants; intact protein mass spectrometry
Experimental: Crosslinker in DMF (500 mM, 5 mM final concentration) was added to a UbcH7 cysteine mutant (100-200 μM in UbcH7 storage buffer; 1% DMF v/v final concentration). The resulting reaction mixture was mixed by pipetting, covered with aluminum foil, and rocked at room temperature (crosslinkers 1), or 4° C. (crosslinker 2 and 3) for 90 minutes. Immediately following, the solution was desalted/exchanged into PBS(B) with a Zeba Spin Desalting Column (7 kDa MWCO Pierce), frozen in N2(l), and stored at −80° C. The extent of alklylation was analyzed by LC-MS.
(§1) Alkylation of UbcH7 cysteine mutants occurred readily by incubating 50-300 μM UbcH7 with 5 mM crosslinker 1 at room temperature for 90 minutes before removing free crosslinker with a desalting column. […] The UbcH7 CΔS-1 mutants (10 μM) were then mixed with the E6AP catalytic HECT domain (10 μM) and irradiated at 365 nm for 10 minutes in a 96-well plate. The reaction mixtures were then resolved with reducing SDS-PAGE and analyzed with anti-UbcH7 western blot. Photocrosslinking of UbcH7 to E6AP depends on the presence of both UV irradiation and E6AP (FIG. 6).

[2] = test system: UbcH7; assay: UbcH7 C86S-Ub oxyester formation by crosslinker-alkylated UbcH7; format: biochemical, human; details: oxyester formation and ubiquitin transfer retained
Experimental: (§2) FIGS. 5A-C. Crosslinker-modified UbcH7 charged with ubiquitin. UbcH7 C86S-Ub oxyester interacts with E6AP to transfer ubiquitin. (A.) Each alkylated mutant is competent to form an UbcH7 C86S-Ub oxyester except when the catalytic cysteine C86 is alkylated with crosslinker (lane 9). UbcH7 mutants alkylated by crosslinker 1 at the indicated residue (5 μM) were incubated with Ube1 (200 nM), ubiquitin (10 μM) in the dark at 37° C. for 15 hours in 25 mM HEPES pH 7.5, 50 mM NaCl, 10 mM MgCl2, 1 mM DTT with or without ATP (185 μM). Reactions were quenched with 6× Laemmli buffer with β-ME and incubated at room temperature for 5 minutes without boiling. The “*” marks a faint GST impurity. […] (C.) UbcH7 CΔS-Ub oxyester alkylated with crosslinker transfers ubiquitin to E6AP HECT (compare to FIG. 2B where E6AP HECT is a single band). […] UbcH7-Ub oxyester (5 μM) was incubated with or without E6AP-HECT (5 μM) in PBS(B) for 20 hours at room temperature. Reactions were quenched with 6× Laemmli buffer with β-ME and incubated at room temperature for 5 minutes without boiling.

[3] = biological target: T1, E6AP HECT domain (Homo sapiens, UniProt Q05086); assay: Photocrosslinking of crosslinker-alkylated UbcH7 to E6AP HECT (365 nm, SDS-PAGE/western blot); format: biochemical; details: crosslinker on UbcH7 CΔS E93C 10 μM, E6AP-HECT 10 μM, 365 nm 10 minutes
T1 construct: Underlined residues remain from the GST tag and are not part; GST (N, cleaved yes); made in house; host or cells: E. coli Rosetta (DE3) pLysS (E6AP HECT); E. coli BL21 (UbcH7)
T1 sequence (Q05086 with tags, fused parts or gaps): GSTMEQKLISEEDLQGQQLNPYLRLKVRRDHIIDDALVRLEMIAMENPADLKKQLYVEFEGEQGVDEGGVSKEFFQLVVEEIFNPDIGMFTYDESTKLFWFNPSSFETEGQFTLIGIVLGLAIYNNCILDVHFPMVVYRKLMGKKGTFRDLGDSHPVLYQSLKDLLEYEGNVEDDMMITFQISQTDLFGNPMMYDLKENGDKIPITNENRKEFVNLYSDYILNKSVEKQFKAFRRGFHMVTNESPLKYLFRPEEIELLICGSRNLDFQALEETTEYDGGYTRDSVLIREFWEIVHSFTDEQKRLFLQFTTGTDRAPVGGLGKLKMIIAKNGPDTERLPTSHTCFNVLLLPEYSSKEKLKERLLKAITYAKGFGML
Experimental: (§3) FIG. 4. […] UbcH7 CΔS E93C-2 or UbcH7 CΔS E93C-3 (10 μM final concentration) was incubated with E6AP-HECT (10 μM final concentration) in PBS(B) with 6 μM Tween-20 and 1 mM DTT. After keeping samples in the dark or irradiating at 365 nm for 10 minutes, they were quenched with 6× Laemmli buffer and β-mercaptoethanol (β-ME) and then boiled at 95° C. for 5 minutes. Covalently crosslinked protein complexes were resolved by SDS-PAGE and visualized by western blot and coomassie.
(§4) E6AP HECT was exchanged into crosslinker buffer with Zeba Spin Desalting Column and mixed (14 μM final concentration, 480 μg) with Tween-20 (6 μM), DTT (1 mM) in PBS(B) in a 1.5 mL tube. The reaction mixture was then taken to a darkened room where alkylated UbcH7 (14 μM, final concentration, 203 μg) was added (final volume of reaction mixture was 790 μL). The solution was mixed by pipetting and then transferred to four wells of a 96 well plate (Costar #3370). The plate was placed 3 cm below a UV lamp (UVP 3UV-38 3UV Lamp; 8 watt, 115V ˜60 Hz, 0.16 Amps) and irradiated at 365 nm for 10 minutes.
(§5) Following irradiation, the sample was mixed with Laemmli buffer and β-mercaptoethanol (230 mM final concentration) and boiled for five minutes. Crosslinking experiments in main text FIGS. 2, 3, and 4 were performed similarly with 20-50 μL total volume and with the indicated final concentrations of UbcH7 and E6AP.
as §1

[4] = biological target: T2, E6AP-HECT (Homo sapiens, UniProt Q05086); details: read-out: Binding affinity Kd for E6AP-HECT; cited from earlier work
T2 sequence (Q05086 495-852 isoform Q05086-2 limits assumed): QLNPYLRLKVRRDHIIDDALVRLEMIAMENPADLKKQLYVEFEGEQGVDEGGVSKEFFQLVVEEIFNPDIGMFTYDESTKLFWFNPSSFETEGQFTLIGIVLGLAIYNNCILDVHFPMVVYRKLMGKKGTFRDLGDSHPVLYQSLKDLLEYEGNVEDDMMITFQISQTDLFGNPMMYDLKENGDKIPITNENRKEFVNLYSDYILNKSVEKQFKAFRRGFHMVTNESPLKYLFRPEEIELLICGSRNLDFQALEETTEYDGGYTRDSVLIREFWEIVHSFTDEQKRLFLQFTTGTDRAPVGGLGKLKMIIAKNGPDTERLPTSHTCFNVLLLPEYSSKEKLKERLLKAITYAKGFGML

[5] = test system: UbcH7/E6AP interaction; assay: Ubiquitin transfer from alkylated UbcH7 CΔS-Ub oxyester to E6AP HECT; format: biochemical; details: UbcH7-Ub oxyester 5 μM, E6AP-HECT 5 μM, PBS(B), 20 hours, room temperature
Experimental: as §2

[6] = test system: E6AP HECT domain; assay: Photocrosslinking of crosslinker-alkylated UbcH7 to E6AP HECT (365 nm, SDS-PAGE/western blot); format: biochemical; details: for Crosslinking of E6AP by UbcH7 CΔS F63A mutants or their Ub oxyesters bearing crosslinker: F63A negative control
Experimental: as §3, §4, §5, §1

[7] = biological target: T3, UbcH7 (Homo sapiens, UniProt P68036, C137S/C17S/C86S/E93C); assay: UbcH7 C86S-Ub oxyester formation by crosslinker-alkylated UbcH7; format: biochemical; details: crosslinker on UbcH7 CΔS E93C; Ube1, ubiquitin, ATP, 37° C., 15 hours
T3 construct: Underlined residues remain from the GST tag and are not part; GST (N, cleaved yes); made in house; host or cells: E. coli BL21 (UbcH7)
Experimental: as §2

[8] = Acid cleavage of crosslinker in photocrosslinked UbcH7-E6AP complex; format: physicochemical; details: pH 1, 55° C.
Experimental: FIGS. 12A-E. Mass spectrometry protocol to identify crosslinker modifications on E6AP. A. The band corresponding to the crosslinked UbcH7-E6AP complex was excised and loaded to the denaturing electroelution device. After eluting complexes from the gels, photocrosslinked protein complexes were cleaved under acidic conditions, trypsinized, and then analyzed. B. Crosslinker 2 is cleavable at pH 1, 55° C. I. UbcH7-E6AP crosslink. II. E6AP-HECT. C. By conducting the acidic cleavage of photocrosslinked proteins in Tris-Glycine-SDS buffer, we avoided hydrolysis of the peptide backbone. I. UbcH7-E6AP crosslink. II. E6AP-HECT. III. UbcH7. D. MS^2 identification of E6AP Lys^847 modified by crosslinker 2. y-ions are highlighted. The full spectrum and b-ion identification can be found in Spectral Appendix I. E. Residue map of the E6AP C-terminus indicating sites of crosslinker modification by UbcH7 CΔS E93C-2/3 or UbcH7 CΔS E93C Ub-2/3.
Electroelution fractions in Tris-Glycine-SDS buffer were treated with 1 M aqueous HCl (protein sample/1 M HCl 4:1 v/v) to obtain pH 1 in a 1.5 microcentrifuge tube (one gel's worth of elution per tube). […]
To identify the photocrosslinked sites of E6AP, a mass spectrometry protocol was developed. […] Finally, protein was precipitated with acetone, digested with trypsin, and then analyzed the peptides with an Orbitrap Velos.

T3 sequence (P68036 with tags, fused parts or gaps C17S/C86S/E93C/C137S): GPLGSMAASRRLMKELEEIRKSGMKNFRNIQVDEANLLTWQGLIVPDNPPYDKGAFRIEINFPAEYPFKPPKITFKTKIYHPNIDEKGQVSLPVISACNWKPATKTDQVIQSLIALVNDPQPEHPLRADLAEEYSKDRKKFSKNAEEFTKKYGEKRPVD

| Photocrosslinking efficiency [3] | Cleavage of crosslinker under acidic conditions [8] | Molecule | Labeling (mono-alkylation) of UbcH7 cysteine mutants, in words [1] | Effect of mutagenesis and alkylation with crosslinker on E2 enzyme structure [2] | pKd [4] | Interference of crosslinker with UbcH7/E6AP interaction (ubiquitin transfer to E6AP HECT) [5] | Crosslinking of E6AP by UbcH7 CΔS F63A mutants or their Ub oxyesters bearing crosslinker [6] | Crosslinking efficiency by crosslinker position on UbcH7 ([6]; crosslinker placed at UbcH7 CΔS E93C or catalytic cysteine Cys86, 10 μM each, 365 nm 10 minutes) | Effect of crosslinker on efficiency of UbcH7-Ub oxyester formation [7] |
| --- | --- | --- | --- | --- | --- | --- | --- | --- | --- |
| equal photocrosslinking efficiency | – | [2H]C([2H])([2H])C1(C([2H])([2H])COS(=O)(=O)NC(=O)CI)N=N1 [Crosslinker 3] | not as reactive with some of the mutants | did not compromise the E2 enzyme structure | – | – | – | – | – |
| – | – | UbcH7: E2 enzyme upstream of E6AP (SEQ ID NO: 2) | – | – | 5.30 | – | – | – | – |
| – | – | CC1(CCNC(=O)CI)N=N1 [Crosslinker 1] | quantitatively labeled every UbcH7 cysteine mutant; also recorded: near quantitative mono-alkylation | did not compromise the E2 enzyme structure | – | does not interfere with the UbcH7/E6AP interaction | did not crosslink E6AP | most efficient crosslinking | – |
| equal photocrosslinking efficiency | cleavable | CC1(CCOS(=O)(=O)NC(=O)CI)N=N1 [Crosslinker 2] | not as reactive with some of the mutants | did not compromise the E2 enzyme structure | – | – | did not crosslink E6AP | – | does not affect the efficiency of UbcH7-Ub oxyester formation |
